Experimental data: the supplement of paper PMC10307832

Legend:
[1] = compound: CN(C)C(=N)NC(=N)N [Metformin] + CC1(C)CCC(c2ccc(Cl)cc2)=C(CN2CCN(c3ccc(C(=O)NS(=O)(=O)c4ccc(N[C@H](CCN5CCOCC5)CSc5ccccc5)c(S(=O)(=O)C(F)(F)F)c4)cc3)CC2)C1 [Navitoclax] (partner 0.5 µM); experiment: relative viability (nuclei count vs DMSO), 5 days (fraction); higher = more cells survive
How it was run: (§1)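 Relative viability equals treated-well nuclei counts divided by vehicle-well nuclei counts. Counts came from 4× images of lung cancer cell lines grown in 1536-well plates for 5 days after pin-tool dosing on the day after seeding. Dosing used one drug alone or a fixed anchor-drug dose plus five library-drug doses (not always all listed) in √10 steps, and values are medians of duplicate plates.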

[2] = compound: CN(C)C(=N)NC(=N)N [Metformin] + CC(=O)Nc1cccc(-n2c(=O)n(C3CC3)c(=O)c3c(Nc4ccc(I)cc4F)n(C)c(=O)c(C)c32)c1 [Trametinib] (partner 0.02 µM); experiment: as above
How it was run: as §1

NCI-H460
relative viability ([1]; first compound 31.62 µM): 1.22
relative viability ([1]; first compound 100 µM): 1.16
relative viability ([1]; first compound 316.23 µM): 1.02
relative viability ([1]; first compound 1000 µM): 1.14
relative viability ([2]; first compound 31.62 µM): 0.122
relative viability ([2]; first compound 100 µM): 0.136
relative viability ([2]; first compound 316.23 µM): 0.133
relative viability ([2]; first compound 1000 µM): 0.253
